Values quoted from earlier work, collected in patent publication US20110308985A1, “COMPOSITION OF A LIPOSOMAL GEL CONTAINING HYDROCORTISONE, ITS METABOLITES, PRECURSORS OR MIXTURES THEREOF AND THE USE THEREOF” (priority 2009, published 2011).

- serum peak relative to the physiological morning peak (about 1 hour after intake of a tablet): over 3 times
- biological half-life (oral administration form): about 100 minutes
Structure (SMILES): C[C@]12CCC(=O)C=C1CC[C@@H]1[C@@H]2[C@@H](O)C[C@@]2(C)[C@H]1CC[C@]2(O)C(=O)CO [hydrocortisone, (11beta)-11,17,21-trihydroxypregn-4-ene-3,20-dione]
